Laboratory results: PMC11435438, “Cyclin-Dependent Kinase 8 Represents a Positive Regulator of Cytomegalovirus Replication and a Novel Host Target for Antiviral Strategies” (Pharmaceutics, 2024)
Like-named read-outs stand apart in the source and are kept apart here.

Columns and labels:
[1] = tested on: HCMV AD169-GFP; assay: microbe, parasite or virus in culture; type: cell-based, human cytomegalovirus
Protocol: (§1) (i.e., 1 × TCID25/7d). Immediately after virus adsorption, the cells were treated with antiviral compounds or solvent control (DMSO). Infections were performed in biological quadruplicates, or as indicated for individual experiments. The cells were fixed by the addition of 150 µL 10% formalin/well 7 d p.i. (Merlin-GFP 14 d p.i.), and washed with PBS. For GFP or YFP quantitation, the Victor X4 microplate reader (PerkinElmer, Waltham, MA, USA) was primarily used, or as a very sensitive alternative, the ImageXpress® Pico device (Molecular Devices LLC, San Jose, CA, USA). Mean EC50 values of antiviral efficacy were calculated on the basis of three experimental replicates or as indicated (measurement of fluorescence values in quadruplicate), and percentage values were provided relative to the solvent control (DMSO).

[2] = tested on: RCMV-mCherry; assay: RCMV-mCherry replication assay in REFs; type: cell-based, rat cytomegalovirus; conditions: in Rattus norvegicus, read-out: EC50 RCMV
From the text: (§2) Similarly, 2 × 10^4 primary embryonic guinea pig fibroblasts GPEFs/96-well, or 1.35 × 10^4 HFFs/96-well, or 2 × 10^4 rat REFs/96-well, or 2 × 10^4 murine MEFs/96-well, were cultivated for infection with GPCMV-GFP, RhCMV-GFP, ChCMV, RCMV-mCherry, or MCMV-GFP, respectively (all approx. MOI of 0.01 referring to 1 × TCID25), and were used for the assessment of antiviral drug activity. To this end, cells were fixed 7 d p.i. (RCMV-mCherry 4 d p.i.), before GFP or mCherry expression was quantified using the Victor X4 microplate reader, or other viral replication markers were measured as explained for the individual experiments. ChCMV replication in HFFs was monitored and quantified by the use of Anti-Cytomegalovirus Antibody Alexa Fluor™ 488. For immunofluorescence staining with Anti-Cytomegalovirus Antibody Alexa Fluor™ 488 (Sigma Aldrich, St. Louis, MO, USA; solution in PBS with 1% FCS), the infected cells were fixed at 7 d p.i. with 10% formalin and permeabilized with 0.2% Triton-x-100. Cell nuclei were counterstained using Höchst dye to be measured using the ImageXpress Pico (Molecular Devices, LLC, San Jose, CA, USA). Mean EC50 values of antiviral efficacy were calculated on the basis of three experimental replicates or as indicated (measurement of fluorescence values in quadruplicate), and percentage values were provided relative to the solvent control (DMSO).

[3] = tested on: HCMV TB40-YFP; assay: HCMV TB40-YFP replication assay in U373 cells; type: cell-based, human cytomegalovirus; conditions: Human betaherpesvirus 5, U373 MG, read-out: EC50 TB40-YFP
Protocol: as §1

[4] = Neutral Red uptake cell viability assay in mock-infected U373 cells; type: cell-based; conditions: human, read-out: CC50 Mock-inf.
Protocol: To address cell viability after compound treatment, a NR uptake assay was performed. Uninfected cells were seeded at equal numbers as for antiviral replication assays and treated with compounds or solvent control. The treatment was performed for HFFs (7 d), U373 (14 d), A549 (3 d), J-Jhan (14 d), and non-dox-induced iSLK.219 cells (3 d). At the end of the treatment period, 40 µg/mL of Neutral Red (NR) was added and incubated for 2–4 h at 37 °C, before the NR-containing supernatant was removed. Cells were destained using a solution containing 50% ethanol, 1% acetic acid, and 49% water. NR fluorescence was quantified using the Victor X4 microplate reader (PerkinElmer, Waltham, MA, USA) (560/630 nm). For the AB cell viability assay, which was also used to quantify virus-induced cytopathogenicity (particularly in the case of GPCMV in GPEFs), cells were seeded at equal numbers as for antiviral replication assays and incubated with a medium containing 25 ng/mL AB (resazurin; Ann Arbor, MI, USA), incubated for 6 h at 37 °C, and used for measurement identical with NR.

[5] = tested on: ChCMV strain Herberling; assay: ChCMV replication assay in HFFs (immunofluorescence); type: cell-based, chimpanzee cytomegalovirus; conditions: in Pan troglodytes, n = 2
From the text: as §2

[6] = Human betaherpesvirus 5, AD169, HFF, read-out: EC50 AD169-GFP
[7] = Human betaherpesvirus 5, AD169, read-out: EC50 HCMV
[8] = mock-infected (uninfected) U373 cells

Compound CN(C)C(=O)Cn1cc(-c2ccc(-c3cncc4ccccc34)cc2)cn1 [BI-1347] has an EC50 [1, 6] of 0.93 ± 0.67 nM, an EC50 [1, 7] of 0.93 ± 0.67 nM and an EC50 [2] of 1.08 ± 1.49 nM. The EC50 [3] was 19.3 ± 21 nM, the CC50 at 14 d [4, 8] was > 100000 nM and the EC50 [5] was 11.6 ± 22.6 nM.
With Cn1ncc2cc(-c3cnc(N)c(Cl)c3N3CCC4(CCNC4=O)CC3)ccc21 [CCT-151921] the EC50 [1, 6] was 3.9 ± 2 nM, the EC50 [1, 7] was 3.9 ± 2 nM and the EC50 [2] was 11.2 ± 22.7 nM. For the same compound, the EC50 [3] was 8.5 ± 11.1 nM, the CC50 at 14 d ([4]; U373) was > 100000 nM and the EC50 [5] was 31 ± 18 nM.
Cc1n[nH]c2ncc(C(=O)N3CCC[C@H]3c3ccc(Cl)cc3)cc12 [MSC-2530818] gave an EC50 [1, 6] of 1.21 ± 0.77 nM, an EC50 [1, 7] of 1.21 ± 0.77 nM and an EC50 [2] of 4.87 ± 4.67 nM. For the same compound, the EC50 [3] was 12.3 ± 11.3 nM, the CC50 at 14 d [4, 8] was 87000 ± 6000 nM and the EC50 [5] was 21 ± 26.5 nM.
